Where a name gives a salt, the structure may show the parent alone.
Key:
[1] = target: T1, NEP (Rattus norvegicus, UniProt P07861); assay: NEP-inhibitory activity (inhibition of [3H]Tyr-Gly-Gly formation from [3H][Leu5]-enkephaline in kidney cortex membranes)
T1 sequence (P07861 1-750): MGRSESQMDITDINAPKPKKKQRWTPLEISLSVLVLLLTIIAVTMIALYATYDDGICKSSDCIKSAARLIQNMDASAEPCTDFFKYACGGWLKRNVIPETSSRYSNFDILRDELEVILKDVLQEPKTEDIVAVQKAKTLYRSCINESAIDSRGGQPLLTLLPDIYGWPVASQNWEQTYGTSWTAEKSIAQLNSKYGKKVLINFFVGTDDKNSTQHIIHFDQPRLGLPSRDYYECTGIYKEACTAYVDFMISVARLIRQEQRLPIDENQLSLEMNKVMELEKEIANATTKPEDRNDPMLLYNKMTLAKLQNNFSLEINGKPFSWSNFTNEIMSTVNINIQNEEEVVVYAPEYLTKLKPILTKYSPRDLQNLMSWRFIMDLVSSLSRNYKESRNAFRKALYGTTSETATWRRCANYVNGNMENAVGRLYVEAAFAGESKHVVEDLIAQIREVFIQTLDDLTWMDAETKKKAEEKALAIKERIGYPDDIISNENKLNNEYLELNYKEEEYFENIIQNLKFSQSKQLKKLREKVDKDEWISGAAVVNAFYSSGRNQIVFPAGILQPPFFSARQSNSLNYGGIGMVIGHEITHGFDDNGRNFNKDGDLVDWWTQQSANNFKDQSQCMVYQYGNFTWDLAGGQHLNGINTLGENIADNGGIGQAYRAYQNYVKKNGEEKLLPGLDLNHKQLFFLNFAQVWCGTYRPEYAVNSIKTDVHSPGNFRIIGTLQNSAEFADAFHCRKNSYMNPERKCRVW

[2] = target: T2, ACE (Oryctolagus cuniculus, UniProt P12822); assay: ACE-inhibitory activity (FAPGG hydrolysis, absorbance at 340 nm); type: biochemical; settings: ACE purified by lung rabbit, FAPGG 0.8 mM, 37°C; compounds of formula I tested in the form of sodium salts
T2 construct: ACE (250 mU/ml purified by lung rabbit, EC 3.4.15.1 SIGMA); purchased SIGMA; host or cells: rabbit lung
T2 sequence (P12822 34-1310): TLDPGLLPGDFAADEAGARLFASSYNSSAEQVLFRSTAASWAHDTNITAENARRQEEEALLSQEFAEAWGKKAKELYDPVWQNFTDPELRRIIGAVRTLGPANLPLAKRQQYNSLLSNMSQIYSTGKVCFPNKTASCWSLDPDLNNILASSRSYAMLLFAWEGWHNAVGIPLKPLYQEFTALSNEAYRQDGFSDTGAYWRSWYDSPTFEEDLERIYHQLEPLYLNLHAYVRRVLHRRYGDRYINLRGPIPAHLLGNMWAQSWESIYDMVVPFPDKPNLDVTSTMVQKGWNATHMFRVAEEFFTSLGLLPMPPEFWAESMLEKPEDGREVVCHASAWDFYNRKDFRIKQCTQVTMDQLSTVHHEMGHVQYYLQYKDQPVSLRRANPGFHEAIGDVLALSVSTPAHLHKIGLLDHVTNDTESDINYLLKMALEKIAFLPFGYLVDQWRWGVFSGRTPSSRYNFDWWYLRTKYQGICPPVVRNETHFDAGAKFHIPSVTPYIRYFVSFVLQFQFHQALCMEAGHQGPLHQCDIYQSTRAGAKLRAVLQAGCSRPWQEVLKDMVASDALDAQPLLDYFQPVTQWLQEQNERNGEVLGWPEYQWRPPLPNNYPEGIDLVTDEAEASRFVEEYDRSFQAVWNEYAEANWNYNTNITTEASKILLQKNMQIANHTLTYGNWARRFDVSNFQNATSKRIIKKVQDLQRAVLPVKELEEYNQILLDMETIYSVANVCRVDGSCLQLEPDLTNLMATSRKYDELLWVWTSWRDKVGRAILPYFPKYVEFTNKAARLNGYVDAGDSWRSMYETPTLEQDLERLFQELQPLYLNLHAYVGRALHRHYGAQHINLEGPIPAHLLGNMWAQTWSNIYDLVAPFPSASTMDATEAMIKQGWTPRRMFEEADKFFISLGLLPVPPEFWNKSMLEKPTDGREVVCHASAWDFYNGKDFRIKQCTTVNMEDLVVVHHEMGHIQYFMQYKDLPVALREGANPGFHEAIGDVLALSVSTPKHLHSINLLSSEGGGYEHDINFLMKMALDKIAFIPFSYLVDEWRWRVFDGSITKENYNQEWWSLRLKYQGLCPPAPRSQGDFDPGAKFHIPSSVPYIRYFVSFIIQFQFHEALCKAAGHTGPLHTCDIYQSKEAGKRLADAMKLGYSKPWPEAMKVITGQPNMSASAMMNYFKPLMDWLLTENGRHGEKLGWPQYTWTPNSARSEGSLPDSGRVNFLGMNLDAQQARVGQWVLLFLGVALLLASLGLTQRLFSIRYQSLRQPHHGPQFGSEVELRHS
Method: […] of ACE (250 mU/ml purified by lung rabbit, EC 3.4.15.1 SIGMA) with 50 µl of the compound of formula I or of the reference compounds, were preincubated in thermostated cuvettes at 37°C for 5 minutes.
The reaction was started by adding furylacryloylphenylalanylglycylglycine 0.8 mM (FAPGG-SIGMA).
Contemporaneously, by using a Beckman DU-50 spectrophotometer provided with a program for calculating delta A/minutes and regression coefficients of the enzyme kinetics curves, the absorbance at 340 nm was recorded in continuo for 5 minutes.

## C[C@H](CS)C(=O)N1CCC[C@H]1C(=O)O [Captopril, reference compound]
[1]; membranes from rat kidney cortex, [3H][Leu5]-enkephaline 15 nM, 20 minutes at 30°C, compounds of formula I tested in the form of sodium salts
  NEP-inhibitory activity IC50 (nM): not active

## O=C(O)[C@H](Cc1ccc(-c2ccccc2)cc1)NC(=O)[C@H](Cc1cccs1)N[C@@H](CCc1ccccc1)C(=O)O [Compound 15]
[2]
  IC50: 1.8 nM
[1]
  IC50: 10 nM

## CC(C)[C@H](N[C@@H](CCc1ccccc1)C(=O)O)C(=O)N[C@@H](Cc1ccc(-c2ccccc2)cc1)C(=O)O [Compound 10]
[2]
  IC50: 2 nM
[1]
  IC50: 41 nM

## CC(C)C[C@H](N[C@@H](CCC(=O)Nc1ccccc1)C(=O)O)C(=O)N[C@@H](Cc1ccc(-c2ccccc2)cc1)C(=O)O [Compound 17]
[2]
  IC50: 2.2 nM
[1]
  IC50: 27 nM

## CC(C)C[C@H](N[C@@H](CCc1ccccc1)C(=O)O)C(=O)N[C@@H](Cc1ccc(-c2ccccc2)cc1)C(=O)O [Compound 1, N-[N'-[(1S)-1-carboxy-3-phenyl-propyl]-L-leucyl]-(1.1'-biphenyl-4-yl)-L-alanine disodium salt]
[2]
  IC50: 1.5 nM
[1]
  IC50: 27.7 nM

## CC(C)C[C@H](N[C@@H](CC(=O)NCc1ccccc1)C(=O)O)C(=O)N[C@@H](Cc1ccc(-c2ccccc2)cc1)C(=O)O [Compound 20]
[2]
  IC50: 15 nM
[1]
  IC50: 53 nM
